Patent US12533428B2, “Multimodal fluorine-CY3/5/7-DOTA-hapten compositions, diagnostics, fluorescence guided surgery and radioimmunotherapy” (Memorial Sloan Kettering Cancer Center, priority 2019, dated 2026)

Assays:
[1] = system: GD2-expressing IMR32Luc neuroblastoma cells; assay: Cell binding with anti-tumor/anti-DOTA BsAb, FACS; assay type: cell-based
Experimental: The cell binding activity of [F]Cy3D (Compound 6) was assayed with an anti-tumor/anti-DOTA bispecific antibody (BsAb). To detect binding of Compound 6 to GD2-expressing IMR32Luc neuroblastoma cells using an anti-GD2/anti-DOTA BsAb or a control BsAb (anti-HER2/anti-DOTA), cells were incubated with 1 μg of BsAb or PBS, washed and then incubated with several versions of Compound 6: (1) Compound 6, (2) [^175Lu]Pre-Compound 6 where ^175Lu was added before a mock ^19F isotope exchange, (3) [^19F]Pre-[^175Lu]Compound 6, where a mock ^19F isotope exchange was done before ^175Lu was added, and (4) [^175Lu]-Compound 6 where ^175Lu was directly added to Compound 6 without isotope exchange. Cells were analyzed by FACS or fluorescent microscopy.

IMR32luc cells = assay: Cell binding with BsAb, fluorescent microscopy; assay type: cell-based; conditions: IMR32luc cells incubated with anti-GD2/anti-DOTA BsAb
Experimental: The cell binding of Compound 6 and [^175Lu]-Compound 6 variants was then studied using fluorescent microscopy. IMR32luc cells were incubated with Anti-GD2/Anti-DOTA BsAb, a control anti-DOTA BsAb or no BsAb, followed by incubation with Compound 6 or [^175Lu]-Compound 6 variants. […] Binding was not detected when a control anti-DOTA BsAb was added (FIG. 14) or no BsAb was added (FIG. 15).

[2] = system: GPA33-expressing SW1222 colon cancer cells; assay: Binding with anti-GPA33/anti-DOTA BsAb, FACS flow cytometry (MFI); assay type: cell-based, human
Experimental: Next [^175Lu]-Compound 6 binding to GPA33-expressing SW1222 colon cancer cells was investigated. SW1222 cells were incubated with 25, 2.5 or 0.25 pmol of anti-GPA33/Anti-DOTA BsAb, or a control (anti-GD2/anti-DOTA) BsAb, washed and mixed with 50, 5 or 0.5 pmol of [^175Lu]-Compound 6.

SW-1222 tumor = assay: In vivo tumor uptake using 3-step PRIT; design: species or system mice; conditions: for Tumor Uptake: SW-1222 tumor-bearing mice pretreated with anti-GPA33/anti-DOTA BsAb and DOTA-dendrimer clearing agent, in %ID/g
Experimental: The in vivo tumor uptake of [F]Cy3D [^177Lu] ([^177Lu]-Compound 6) was analyzed in tumor-bearing (SW-1222) mice.

[3] = In vivo biodistribution and pharmacokinetics in tumor free mice (gamma counter)
Experimental: The in vivo biodistribution and pharmacokinetics of ([^177Lu]-Compound 6) and BnDOTA[^177Lu] was investigated in tumor free mice. See FIGS. 17A-17B and Tables 2 and 3. Mice were dosed with radiolabeled probes at t=0 and sacrificed at various time points. Organs were harvested and activity was counted by gamma counter. Tables 2-3 show the serial biodistribution data for the analyzed organs of Compound 6 and Compound 2, respectively. FIG. 17A overlays the time course in activity in either vital tissues (left panel) or the blood (right panel) between the two probes.

Q: For `CC1(C)C(/C=C/C=C2/N(CCCCCC(=O)Nc3ccc(CC4CN(CC(=O)O)CCN(CC(=O)O)CCN(CC(=O)O)CCN4CC(=O)O)cc3)c3ccc(S(=O)(=O)[O-])cc3C2(C)C)=[N+](CCCCCC(=O)NCC[N+](C)(C)C[B-](F)(F)F)c2ccc(S(=O)(=O)O)cc21` (centres unmarked) [Compound 6, [F]Cy3D], which “Binding to cells (fluorescence, FACS)” value ([1]; IMR32Luc cells incubated with 1 μg anti-GD2/anti-DOTA BsAb) is on record?
A: shows no fluorescence

Q: And the “Binding to cells (fluorescence, FACS)” value ([1]; IMR32Luc cells, negative controls: no BsAb or control BsAb (anti-HER2/anti-DOTA))?
A: no binding

Q: And the “Binding to cells (fluorescent microscopy)” value (IMR32luc cells)?
A: did not show binding

Q: Which results are given for `CC1(C)C(=CC=CC2=[N+](CCCCCC(=O)NCC[N+](C)(C)C[B-](F)(F)F)c3ccc(S(=O)(=O)[O-])cc3C2(C)C)N(CCCCCC(=O)Nc2ccc(CC3CN(CC(=O)[O-])CCN(CC(=O)[O-])CCN(CC(=O)[O-])CCN3CC(=O)[O-])cc2)c2ccc(S(=O)(=O)[O-])cc21.[175Lu+3]` (centres unmarked) [[^175Lu]-Compound 6, [F]Cy3D[^175Lu]]?
A: Mean fluorescence (MFI) of binding ([2]; SW1222 cells, 25, 2.5 or 0.25 pmol anti-GPA33/anti-DOTA BsAb, 50, 5 or 0.5 pmol probe): proportionate to the amount; Binding to cells (FACS) ([2]; SW1222 cells, control anti-GD2/anti-DOTA BsAb): no binding

Q: What does the source list for `CC1(C)C(=CC=CC2=[N+](CCCCCC(=O)NCC[N+](C)(C)C[B-](F)(F)F)c3ccc(S(=O)(=O)[O-])cc3C2(C)C)N(CCCCCC(=O)Nc2ccc(CC3CN(CC(=O)[O-])CCN(CC(=O)[O-])CCN(CC(=O)[O-])CCN3CC(=O)[O-])cc2)c2ccc(S(=O)(=O)[O-])cc21.[177Lu+3]` (centres unmarked) [[^177Lu]-Compound 6, [F]Cy3D[^177Lu]]?
A: Tumor Uptake (SW-1222 tumor; 1 h): 25.24 ± 4.49; Tumor Uptake (SW-1222 tumor; 4 h): 21.93 ± 2.25; Tumor Uptake (SW-1222 tumor; 24 h): 23.17 ± 4.83; Tumor Uptake (SW-1222 tumor; 48 h): 22.13 ± 5.37; Binding to BsAb-treated tumor in vivo compared to the standard BnDOTA[^177Lu] (SW-1222 tumor; SW-1222 tumor-bearing mice, 3-step PRIT): equal specificity and efficacy; Uptake ([3]; Blood, 1 h after dosing): 0.122 ± 0.005 % injected Dose/gram; Uptake ([3]; Blood, 2 h after dosing): 0.034 ± 0.005 % injected Dose/gram; Uptake ([3]; Blood, 4 h after dosing): 0.014 ± 0.001 % injected Dose/gram; Uptake ([3]; Blood, 24 h after dosing): 0.004 ± 0.002 % injected Dose/gram; Uptake ([3]; Blood, 48 h after dosing): 0.003 ± 0 % injected Dose/gram; Uptake ([3]; Bone, 1 h after dosing): 0.065 ± 0.009 % injected Dose/gram; Uptake ([3]; Bone, 2 h after dosing): 0.043 ± 0.007 % injected Dose/gram; Uptake ([3]; Bone, 4 h after dosing): 0.038 ± 0.012 % injected Dose/gram; Uptake ([3]; Bone, 24 h after dosing): 0.019 ± 0.003 % injected Dose/gram; Uptake ([3]; Bone, 48 h after dosing): 0.021 ± 0.001 % injected Dose/gram; Uptake ([3]; Brain, 1 h after dosing): 0.007 ± 0.001 % injected Dose/gram; Uptake ([3]; Brain, 2 h after dosing): 0.014 ± 0.01 % injected Dose/gram; Uptake ([3]; Brain, 4 h after dosing): 0.004 ± 0 % injected Dose/gram; Uptake ([3]; Brain, 24 h after dosing): 0.001 ± 0.001 % injected Dose/gram; Uptake ([3]; Brain, 48 h after dosing): 0.001 ± 0 % injected Dose/gram; Biodistribution, comparison of the two probes ([3]; FIG. 17B): comparable biodistribution; Uptake ([3]; Heart, 1 h after dosing): 0.056 ± 0.006 % injected Dose/gram; Uptake ([3]; Heart, 2 h after dosing): 0.027 ± 0.004 % injected Dose/gram; Uptake ([3]; Heart, 4 h after dosing): 0.017 ± 0 % injected Dose/gram; Uptake ([3]; Heart, 24 h after dosing): 0.008 ± 0.006 % injected Dose/gram; Uptake ([3]; Heart, 48 h after dosing): 0.009 ± 0 % injected Dose/gram; Uptake ([3]; Kidneys, 1 h after dosing): 1.021 ± 0.096 % injected Dose/gram; Uptake ([3]; Kidneys, 2 h after dosing): 1.147 ± 0.184 % injected Dose/gram; Uptake ([3]; Kidneys, 4 h after dosing): 0.989 ± 0.1 % injected Dose/gram; Uptake ([3]; Kidneys, 24 h after dosing): 0.66 ± 0.07 % injected Dose/gram; Uptake ([3]; Kidneys, 48 h after dosing): 0.5 ± 0.05 % injected Dose/gram; Uptake ([3]; Lg. Intestine, 1 h after dosing): 0.046 ± 0.009 % injected Dose/gram; Uptake ([3]; Lg. Intestine, 2 h after dosing): 2.577 ± 0.409 % injected Dose/gram; Uptake ([3]; Lg. Intestine, 4 h after dosing): 2.356 ± 1.032 % injected Dose/gram; Uptake ([3]; Lg. Intestine, 24 h after dosing): 0.047 ± 0.016 % injected Dose/gram; Uptake ([3]; Lg. Intestine, 48 h after dosing): 0.035 ± 0.021 % injected Dose/gram; Uptake ([3]; Liver, 1 h after dosing): 0.119 ± 0.015 % injected Dose/gram; Uptake ([3]; Liver, 2 h after dosing): 0.12 ± 0.025 % injected Dose/gram; Uptake ([3]; Liver, 4 h after dosing): 0.088 ± 0.009 % injected Dose/gram; Uptake ([3]; Liver, 24 h after dosing): 0.063 ± 0.007 % injected Dose/gram; Uptake ([3]; Liver, 48 h after dosing): 0.052 ± 0.007 % injected Dose/gram; Uptake ([3]; Lungs, 1 h after dosing): 0.142 ± 0.017 % injected Dose/gram; Uptake ([3]; Lungs, 2 h after dosing): 0.071 ± 0.01 % injected Dose/gram; Uptake ([3]; Lungs, 4 h after dosing): 0.041 ± 0.004 % injected Dose/gram; Uptake ([3]; Lungs, 24 h after dosing): 0.023 ± 0.005 % injected Dose/gram; Uptake ([3]; Lungs, 48 h after dosing): 0.017 ± 0.001 % injected Dose/gram; Uptake ([3]; Muscle, 1 h after dosing): 0.04 ± 0.009 % injected Dose/gram; Uptake ([3]; Muscle, 2 h after dosing): 0.032 ± 0.014 % injected Dose/gram; Uptake ([3]; Muscle, 4 h after dosing): 0.023 ± 0.013 % injected Dose/gram; Uptake ([3]; Muscle, 24 h after dosing): 0.008 ± 0.003 % injected Dose/gram; Uptake ([3]; Muscle, 48 h after dosing): 0.007 ± 0 % injected Dose/gram; Uptake ([3]; Sm. Intestine, 1 h after dosing): 0.914 ± 0.311 % injected Dose/gram; Uptake ([3]; Sm. Intestine, 2 h after dosing): 0.958 ± 0.379 % injected Dose/gram; Uptake ([3]; Sm. Intestine, 4 h after dosing): 0.169 ± 0.258 % injected Dose/gram; Uptake ([3]; Sm. Intestine, 24 h after dosing): 0.022 ± 0.007 % injected Dose/gram; Uptake ([3]; Sm. Intestine, 48 h after dosing): 0.016 ± 0.003 % injected Dose/gram; Uptake ([3]; Spleen, 1 h after dosing): 0.06 ± 0.008 % injected Dose/gram; Uptake ([3]; Spleen, 2 h after dosing): 0.048 ± 0.021 % injected Dose/gram; Uptake ([3]; Spleen, 4 h after dosing): 0.032 ± 0.004 % injected Dose/gram; Uptake ([3]; Spleen, 24 h after dosing): 0.029 ± 0.002 % injected Dose/gram; Uptake ([3]; Spleen, 48 h after dosing): 0.022 ± 0.001 % injected Dose/gram; Uptake ([3]; Stomach, 1 h after dosing): 0.734 ± 1.363 % injected Dose/gram; Uptake ([3]; Stomach, 2 h after dosing): 0.985 ± 0.861 % injected Dose/gram; Uptake ([3]; Stomach, 4 h after dosing): 0.186 ± 0.256 % injected Dose/gram; Uptake ([3]; Stomach, 24 h after dosing): 0.02 ± 0.011 % injected Dose/gram; Uptake ([3]; Stomach, 48 h after dosing): 0.019 ± 0 % injected Dose/gram; Uptake ([3]; Tail, 1 h after dosing): 0.279 ± 0.079 % injected Dose/gram; Uptake ([3]; Tail, 2 h after dosing): 0.237 ± 0.128 % injected Dose/gram; Uptake ([3]; Tail, 4 h after dosing): 0.154 ± 0.102 % injected Dose/gram; Uptake ([3]; Tail, 24 h after dosing): 0.079 ± 0.026 % injected Dose/gram; Uptake ([3]; Tail, 48 h after dosing): 0.018 ± 0.016 % injected Dose/gram; Clearance (time course of activity in vital tissues and blood) ([3]; comparison of the two probes): cleared at similar rates
